Assay results: paper PMC5424463, “A strategy based on nucleotide specificity leads to a subfamily-selective and cell-active inhibitor of N ^6-methyladenosine demethylase FTO” (Chemical Science, 2014)
pIC50: −log10 of the molar value.

Experiments:
PHD2 [1] = test system: PHD2; set-up: method as in PMID 16858410; conditions: known inhibitor; cited from earlier work
PHD2 [2] = target: T1, PHD2 (Homo sapiens, UniProt Q9GZT9); assay: MALDI-based inhibition assay for PHD2; assay type: biochemical; conditions: 19-mer peptide substrate
T1 construct: Full length human PHD2 (fused to a MYC/DDK tag at C-terminal); purchased Origene Technology, USA
Method: IC50s were then calculated from the variation in percentage demethylation at different inhibitor concentrations, using nonlinear regression, with normalized dose-response fit on […]
MALDI-based inhibition assays for FTO and ALKBH5
The assay was modified from previously reported method.[5] An 8-mer m6A-ssDNA substrate with the sequence 5’-TCA(m6A)CAGC-3’ (Yale University, W.M. Keck Foundation Biotechnology Resource Laboratory) was used in this inhibition assay. The assay was performed in triplicate for each inhibitor, in a final reaction volume of 25 µL. Reaction consisted of FTO (2 µM) or ALKBH5 (4 µM), 2OG (150 µM), (NH4)2Fe(SO4)2·6H2O (150 µM), L-ascorbate (2 mM), m6A-ssDNA substrate (100 µM), in 50 mM HEPES buffer, pH 7.5, and inhibitor at various concentrations (final DMSO concentration not more than 1% v/v of assay mix). The reaction was incubated at room temperature for 30 min, before 1:1 quenching with 20% v/v formic acid. 1 uL of the diluted assay mixture was then mixed with 1 uL of 3-hydroxpicolinic acid (3-HPA, the MALDI-TOF-MS matrix, Sigma-Aldrich) and spotted onto the MALDI-TOF-MS plate before analysis. The 3-HPA matrix was prepared by mixing 9 parts of 50 mg/mL 3-hydroxpicolinic acid in 50% MeCN/Milli-Q H2O with 1 part of 50 mg/mL ammonium citrate in Milli-Q H2O. […]

T1 sequence (Q9GZT9 whole entry, the tested form may be a part): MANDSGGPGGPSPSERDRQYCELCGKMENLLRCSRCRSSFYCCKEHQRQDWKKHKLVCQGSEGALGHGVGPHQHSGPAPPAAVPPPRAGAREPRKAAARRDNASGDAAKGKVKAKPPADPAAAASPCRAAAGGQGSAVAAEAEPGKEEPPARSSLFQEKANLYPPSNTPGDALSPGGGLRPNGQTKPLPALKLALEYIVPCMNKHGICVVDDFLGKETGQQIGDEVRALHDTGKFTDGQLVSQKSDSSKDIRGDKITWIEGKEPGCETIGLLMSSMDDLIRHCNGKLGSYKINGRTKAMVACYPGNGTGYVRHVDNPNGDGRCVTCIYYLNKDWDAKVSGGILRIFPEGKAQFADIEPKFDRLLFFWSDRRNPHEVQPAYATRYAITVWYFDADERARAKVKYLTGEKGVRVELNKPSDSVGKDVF

In the case of `O=C(O)/C=C/C(=O)NNC(=O)c1cccnc1` [Compound 21], the pIC50 (PHD2 [1]) is given as 7.09.
In the case of `O=C(O)/C=C/C(=O)NNC(=O)c1cnccc1Cc1ccccc1` [Compound 12], the pIC50 (PHD2 [2]) was under 4.00.
